In ChEMBL document CHEMBL3046348, “Synthesis and antimicrobial screening of novel 2,6-ditertiarybutylpiperidin-4-ones” (2012):
Converted amounts (≈) assume the structure as drawn.

Experiments:
Type in all cases: functional
Escherichia coli = experiment: Antibacterial activity against Escherichia coli after 24 hr by serial dilution method
Bacillus subtilis = experiment: Antibacterial activity against Bacillus subtilis after 24 hr by serial dilution method
Klebsiella pneumoniae = experiment: Antibacterial activity against Klebsiella pneumoniae after 24 hr by serial dilution method
Aspergillus niger = experiment: Antifungal activity against Aspergillus niger after 72 to 96 hr by serial dilution method
Trichoderma = experiment: Antifungal activity against Trichoderma sp after 72 to 96 hr by serial dilution method

Row | Structure (SMILES) | MIC (Escherichia coli) [µg/mL] | MIC (Bacillus subtilis) [µg/mL] | MIC (Klebsiella pneumoniae) [µg/mL] | MIC (Aspergillus niger) [µg/mL] | MIC (Trichoderma) [µg/mL]
1 | CC(C)(C)C1CC(=O)CC(C(C)(C)C)N1C(C)(C)C (stereo not given) | 64 (≈ 239 µM) | 8 (≈ 29.9 µM) | 128 (≈ 479 µM) | 8 (≈ 29.9 µM) | 16 (≈ 59.8 µM)
2 | CCOC(=O)C1/C(=N\O)CC(C(C)(C)C)NC1C(C)(C)C (stereo not given) | 16 (≈ 53.6 µM) | 64 (≈ 214 µM) | 64 (≈ 214 µM) | 8 (≈ 26.8 µM) | 8 (≈ 26.8 µM)
3 | CCOC(=O)C1C(=O)CC(C(C)(C)C)NC1C(C)(C)C (stereo not given) | 64 (≈ 226 µM) | 8 (≈ 28.2 µM) | 128 (≈ 452 µM) | 8 (≈ 28.2 µM) | 32 (≈ 113 µM)
4 | CC(C)(C)C1CC(=O)CC(C(C)(C)C)N1N=O (stereo not given) | > 512 | 16 (≈ 66.6 µM) | 256 (≈ 1070 µM) | > 512 | > 512
5 | CC(C)(C)C1CC(=O)CC(C(C)(C)C)N1 (stereo not given) | 64 (≈ 303 µM) | 8 (≈ 37.9 µM) | 64 (≈ 303 µM) | 8 (≈ 37.9 µM) | 8 (≈ 37.9 µM)
6 | CC(C)(C)C1CC(=NO)CC(C(C)(C)C)N1 (stereo not given) | 256 (≈ 1130 µM) | 64 (≈ 283 µM) | > 512 | 64 (≈ 283 µM) | 16 (≈ 70.7 µM)
7 | CC1C(=O)CC(C(C)(C)C)N(N=O)C1C(C)(C)C (stereo not given) | > 512 | 16 (≈ 62.9 µM) | 512 (≈ 2010 µM) | 16 (≈ 62.9 µM) | 8 (≈ 31.4 µM)
8 | CC1C(=O)CC(C(C)(C)C)NC1C(C)(C)C (stereo not given) | 256 (≈ 1140 µM) | 16 (≈ 71 µM) | > 512 | 8 (≈ 35.5 µM) | 16 (≈ 71 µM)
9 | CCn1cc(C(=O)O)c(=O)c2cc(F)c(N3CCNCC3)cc21 [NORFLOXACIN] | 32 (≈ 100 µM) | 16 (≈ 50.1 µM) | 16 (≈ 50.1 µM) |  | 
10 | CC1/C(=N/O)CC(C(C)(C)C)NC1C(C)(C)C (stereo not given) | > 512 | 16 (≈ 66.6 µM) | 32 (≈ 133 µM) | 8 (≈ 33.3 µM) | 8 (≈ 33.3 µM)
11 | CC1C(=O)CC(C(C)(C)C)N(C(C)(C)C)C1C(C)(C)C (stereo not given) | > 512 | 16 (≈ 56.8 µM) | 64 (≈ 227 µM) | 8 (≈ 28.4 µM) | 16 (≈ 56.8 µM)
12 | C[C@@H]1[C@H](O)[C@@H](C)/C=C/C=C/C=C/C=C/C=C/C=C/C=C/[C@H](O[C@@H]2O[C@H](C)[C@@H](O)[C@H](N)[C@@H]2O)C[C@@H]2O[C@](O)(C[C@@H](O)C[C@@H](O)[C@H](O)CC[C@@H](O)C[C@@H](O)CC(=O)O[C@H]1C)C[C@H](O)[C@H]2C(=O)O [AMPHOTERICIN B] |  |  |  | 32 (≈ 34.6 µM) | 32 (≈ 34.6 µM)
13 | CCOC(=O)C1C(=O)CC(C(C)(C)C)N(N=O)C1C(C)(C)C (stereo not given) | 64 (≈ 205 µM) | 64 (≈ 205 µM) | 32 (≈ 102 µM) | 64 (≈ 205 µM) | 32 (≈ 102 µM)
14 | CCOC(=O)C1C(=O)CC(C(C)(C)C)N(C(C)(C)C)C1C(C)(C)C (stereo not given) | 64 (≈ 189 µM) | 16 (≈ 47.1 µM) | 256 (≈ 754 µM) | > 512 | > 512
